In patent publication US12460263B2, “Genetic variants for diagnosis of Alzheimer's disease” (The Hong Kong University of Science and Technology, priority 2019, dated 2025):
“Also recorded” adds a separate entry of the source.

How the values were obtained:
plasma sST2 protein = assay: Association analysis of plasma sST2 protein level (ELISA) and medication in Hong Kong female AD patients; type: in vivo, human; conditions: female AD patients taking trazodone (n=15) vs not taking (n=149), Hong Kong Chinese AD cohort, linear regression adjusted for age and population structure, ***P<0.001
Excerpt: Subject Recruitment for the Hong Kong Chinese AD Cohort: A cohort of Hong Kong Chinese was recruited from individuals who visited the Specialist Outpatient Department of the Prince of Wales Hospital, the Chinese University of Hong Kong. A total of 427 subjects were recruited: 233 with AD and 194 normal controls (NCs). All subjects were ≥60 years old. The clinical diagnosis of AD was established based on the American Psychiatric Association's Diagnostic and Statistical Manual of Mental Disorders, Fifth Edition (DSM-5). All subjects were given medical history assessment, cognitive and functional assessment through the Montreal Cognitive Assessment (MoCA) test, and neuroimaging assessment by MRI. Each individual's data, including age, sex, education, medical history, and cardiovascular disease history, were recorded. Individuals with any significant neurological disease or psychiatric disorder were excluded. The plasma of subjects was collected and stored at −80° C. as aliquots until use. […] Absolute blood cell count was determined by complete blood count (CBC) at the Prince of Wales Hospital. […]
Detection of Soluble ST2 Protein by ELISA: Human plasma and CSF soluble ST2 (sST2) protein levels were measured using the Human ST2/IL-33 R Quantikine ELISA Kit (DST200). […]

serum sST2 = assay: Trazodone treatment of mice, serum sST2 level by ELISA; type: in vivo, mouse; conditions: 18 mo
Description: Trazodone treatment of mice: Mice were treated with Trazodone or vehicle control either by intraperitoneal (IP) injection or oral administration. For IP injection, mice were daily injected with 50 mg/kg Trazodone or vehicle (saline). For oral administration, mice were daily fed with 100 mg/kg Trazodone or vehicle (water). After the 2 days, 4 days, 7 days or 14 days of treatment, mouse blood was collected by intracardial bleed at time of sacrifice. The blood without anticoagulants was incubated at room temperature for 2 h and then centrifuged at 2,000×g for 20 min. The serum sST2 level was measured using the Mouse ST2/IL-33 R Quantikine ELISA Kit (MST200, R&D).

[1] = Association analysis of cognitive performance (MoCA score) and medication history in female AD patients; type: in vivo, human; conditions: association with medication history, P=0.0202
Excerpt: Subject Recruitment for the Hong Kong Chinese AD Cohort: A cohort of Hong Kong Chinese was recruited from individuals who visited the Specialist Outpatient Department of the Prince of Wales Hospital, the Chinese University of Hong Kong. A total of 427 subjects were recruited: 233 with AD and 194 normal controls (NCs). All subjects were ≥60 years old. The clinical diagnosis of AD was established based on the American Psychiatric Association's Diagnostic and Statistical Manual of Mental Disorders, Fifth Edition (DSM-5). All subjects were given medical history assessment, cognitive and functional assessment through the Montreal Cognitive Assessment (MoCA) test, and neuroimaging assessment by MRI. Each individual's data, including age, sex, education, medical history, and cardiovascular disease history, were recorded. Individuals with any significant neurological disease or psychiatric disorder were excluded. The plasma of subjects was collected and stored at −80° C. as aliquots until use. This study was approved by the Prince of Wales Hospital, the Chinese University of Hong Kong, and the Hong Kong University of Science and Technology. All participants provided written informed consent for both study enrollment and sample collection. Absolute blood cell count was determined by complete blood count (CBC) at the Prince of Wales Hospital. […]

Compound: O=c1n(CCCN2CCN(c3cccc(Cl)c3)CC2)nc2ccccn12 [Trazodone, trazodone]
- plasma sST2 level (plasma sST2 protein): decreased plasma sST2 level
- plasma sST2 level (plasma sST2 protein; listed as trazodone): effective agent to lower plasma sST2 level
- serum sST2 level (serum sST2; female APP/PS1 mice, daily 100 mg/kg oral for 7 or 14 days vs vehicle, n=5/group, 100 mg/kg): reduction of serum sST2 level; also recorded: down-regulates the serum sST2 level
- serum sST2 level (serum sST2; female wildtype mice, daily 50 mg/kg IP or 100 mg/kg oral for 2 or 4 days vs vehicle, n=2/group): reduction of serum sST2 level; also recorded: down-regulates the serum sST2 level
- cognitive performance (MoCA score) [1]: altered cognitive performance
